Laboratory results: PubChem BioAssay (NCI)
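Five concentrations, 48 hours, 96-well plates. Here, GI50 denotes the concentration required for 50% inhibition of growth. At the TGI there is no net growth.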

Tests used:
Assay in all cases: DTP human tumour cell line panel, 48 h
ACHN renal = test system: ACHN renal
SR leukemia = test system: SR leukemia
HL-60(TB) leukemia = test system: HL-60(TB) leukemia
MDA-N = test system: MDA-N
NCI-H460 lung = test system: NCI-H460 lung
EKVX NSCLC = test system: EKVX NSCLC
M14 melanoma = test system: M14 melanoma
MDA-MB-231 breast = test system: MDA-MB-231 breast
T-47D breast = test system: T-47D breast

Row | Structure (SMILES) | TGI (ACHN renal) | TGI (SR leukemia) | TGI (HL-60(TB) leukemia) | TGI (MDA-N) | TGI (NCI-H460 lung) | TGI (EKVX NSCLC) | TGI (M14 melanoma) | TGI (MDA-MB-231 breast) | TGI (T-47D breast) | GI50 (ACHN renal) | GI50 (SR leukemia) | GI50 (HL-60(TB) leukemia) | GI50 (M14 melanoma) | GI50 (MDA-MB-231 breast) | GI50 (NCI-H460 lung) | GI50 (T-47D breast) | GI50 (EKVX NSCLC)
1 | O=C1c2ccccc2-c2nc3ccncc3n21 | > 100 µM | > 100 µM | > 100 µM | > 100 µM | > 100 µM | > 100 µM | – | – | – | – | – | – | – | – | – | – | –
2 | COc1cc2c[n+]3c4c(c2c(OC)c1OC)CCCC4CC3 (centres undefined) | > 100 µM | – | – | > 100 µM | > 100 µM | > 100 µM | > 100 µM | > 100 µM | > 100 µM | – | – | – | – | – | – | – | –
3 | C=C(C)C1CC(=O)C(C)=C(O)C1 (centres undefined) | > 100 µM | > 100 µM | > 100 µM | > 100 µM | > 100 µM | > 100 µM | > 100 µM | > 100 µM | > 100 µM | – | – | – | – | – | – | – | –
4 | Oc1ccc(C(O)C2CCCCN2)cc1O (centres undefined) | > 100 µM | > 100 µM | – | > 100 µM | > 100 µM | > 100 µM | > 100 µM | > 100 µM | 54.3 µM | – | – | – | – | – | – | – | –
5 | C=C(NC(=O)C(=C)NC(=O)c1ccc2c(n1)-c1coc(n1)C(=C)NC(=O)C(=C)NC(=O)c1nc(oc1C)C(=C)NC(=O)C(C(C)(C)O)NC(=O)C(=C)NC(=O)c1coc(n1)/C(=C/C)NC(=O)[C@H]([C@@H](C)O)NC(=O)c1csc-2n1)C(N)=O (some centres undefined) | > 87.5 µM | > 87.5 µM | > 87.5 µM | > 87.5 µM | > 87.5 µM | > 87.5 µM | > 87.5 µM | > 87.5 µM | – | – | – | – | – | – | – | – | –
6 | CCN1CC2(C)CCC(OC)C34C5CC6CCC(O)(C5C(=O)O6)C(C(O)C23)C14 (centres undefined) | > 100 µM | – | > 100 µM | > 100 µM | > 100 µM | > 100 µM | > 100 µM | > 100 µM | > 100 µM | – | – | – | – | – | – | – | –
7 | COc1cc2c(/C=C3/C(=O)Nc4ccccc43)c(Cl)n(Cc3ccc(Cl)cc3)c2cc1C | 1.27 µM | 0.43 µM | 2.33 µM | – | 2.3 µM | 44.9 µM | 1.75 µM | 0.754 µM | 24.2 µM | – | – | – | – | – | – | – | –
8 | CCC1(O)CC(CCN(Cc2ccccc2)C(=O)OCc2ccccc2)C(OCc2ccccc2)C1O (centres undefined) | 32.2 µM | 34.9 µM | – | 98.8 µM | 31.3 µM | 30.9 µM | 42.3 µM | 87.3 µM | 30.6 µM | – | – | – | – | – | – | – | –
9 | COC(=O)C1=C(CCCCO[Si](C)(C)C(C)(C)C)NC(=O)N2[C@H](CCOCc3ccccc3)CC[C@@H]12 | > 100 µM | – | – | > 100 µM | > 100 µM | > 100 µM | > 100 µM | > 100 µM | > 100 µM | – | – | – | – | – | – | – | –
10 | O=c1c2cc(Br)cc(Br)c2[nH]c(=S)n1-c1ccc(N=Nc2ccc(O)c3cccnc23)cc1 | > 100 µM | > 100 µM | > 100 µM | > 100 µM | – | > 100 µM | > 100 µM | > 100 µM | > 100 µM | – | – | – | – | – | – | – | –
11 | O=C(CNc1ccccc1C(=O)O)Nn1cnc2ccc(S(=O)(=O)Nc3ccccc3C(=O)O)cc2c1=O | > 100 µM | > 100 µM | > 100 µM | > 100 µM | > 100 µM | > 100 µM | > 100 µM | > 100 µM | – | – | – | – | – | – | – | – | –
12 | COC(=O)[C@]1(c2cc3ccccc3n2S(=O)(=O)c2ccccc2)CC2CN(C(=O)OCc3ccccc3)C1C1OC(C)(C)OC21 (some centres undefined) | > 100 µM | – | > 100 µM | > 100 µM | > 100 µM | > 100 µM | > 100 µM | > 100 µM | – | – | – | – | – | – | – | – | –
13 | C=C1CCC[C@@H](C)C(O)[C@@H]2OC(=O)C(=C)[C@@H]2C[C@@H](OC(C)=O)[C@@]2(C)CC[C@@H]1O2 (some centres undefined) | 13.4 µM | 9.91 µM | – | – | – | 15.1 µM | 13.6 µM | 16.3 µM | 19.2 µM | – | – | – | – | – | – | – | –
14 | COC(=O)c1sc(=O)sc1SCc1cccc(CSc2sc(=O)sc2C(=O)OC)c1 | > 100 µM | – | – | > 100 µM | > 100 µM | > 100 µM | > 100 µM | 67.4 µM | > 100 µM | – | – | – | – | – | – | – | –
15 | O=C(O)c1c(CC(Cc2ccc3c(c2)CCC3)C(=O)O)ccc2c1CCC2 (centres undefined) | > 100 µM | > 100 µM | > 100 µM | > 100 µM | > 100 µM | > 100 µM | > 100 µM | > 100 µM | – | – | – | – | – | – | – | – | –
16 | N#Cc1c(-c2ccc([N+](=O)[O-])cc2)c(C#N)c(=O)n(NS(=O)(=O)c2ccccc2)c1S | > 100 µM | – | – | – | > 100 µM | > 100 µM | > 100 µM | 44.7 µM | – | – | – | – | – | – | – | – | –
17 | CC(=O)CC1(CBr)Nc2ccc([N+](=O)[O-])cc2NC1=O (centres undefined) | > 100 µM | > 100 µM | – | > 100 µM | > 100 µM | > 100 µM | > 100 µM | > 100 µM | > 100 µM | – | – | – | – | – | – | – | –
18 | CC1=C(C)C(=O)C(C2=CC(=O)c3ccccc3C2=O)=C(C2=CC(=O)c3ccccc3C2=O)C1=O | 14.9 µM | – | 12.3 µM | – | 25.4 µM | > 72 µM | > 40.8 µM | 13.4 µM | 45.1 µM | – | – | – | – | – | – | – | –
19 | CC(Nc1ccc(Cl)cc1)c1ccncc1 (centres undefined) | > 100 µM | – | – | > 100 µM | > 100 µM | > 100 µM | > 100 µM | – | > 100 µM | – | – | – | – | – | – | – | –
20 | CC1OC(OC2C(O[C@H]3CC[C@@]4(C)C(=CC[C@H]5[C@@H]6C[C@@H]7O[C@]8(CC[C@@H](C)CO8)[C@@H](C)[C@@H]7[C@@]6(C)CC[C@@H]54)C3)OC(CO)C(O)C2OC2OC(CO)C(O)C(O)C2O)C(O)C(O)C1O (some centres undefined) | 3.29 µM | > 100 µM | – | 3.17 µM | – | > 21.9 µM | – | 2.98 µM | 4.65 µM | – | – | – | – | – | – | – | –
21 | C=C1c2nc3ccccc3n2C=C(c2ccc(C)cc2)N1c1ccc(OC)cc1 | > 100 µM | 19.8 µM | 55.6 µM | – | > 100 µM | > 100 µM | > 100 µM | > 100 µM | > 100 µM | – | – | – | – | – | – | – | –
22 | Cc1nc(NC(C)(CO)CO)nc(N/N=C/c2ccc(Cl)cc2)c1C(=O)Nc1ccc(Cl)cc1 | > 100 µM | – | > 100 µM | > 100 µM | > 100 µM | > 100 µM | > 100 µM | > 100 µM | > 100 µM | – | – | – | – | – | – | – | –
23 | O=C1c2cc3c(cc2-c2c1c1cc(F)c(F)cc1c(=O)n2CCCn1ccnc1)OCO3 | 0.134 µM | 16.6 µM | 16.6 µM | – | 0.199 µM | > 100 µM | > 100 µM | > 100 µM | 0.0577 µM | < 0.01 µM | < 0.01 µM | 0.0113 µM | 0.0101 µM | 0.311 µM | < 0.01 µM | < 0.01 µM | 0.687 µM
24 | COP(=O)(OC)OCN(C)CC/C=C(\C)CC/C=C(\C)CCC=C(C)C | 64.2 µM | – | – | 29.3 µM | 23.9 µM | 63.3 µM | 28 µM | 56.3 µM | 43.9 µM | – | – | – | – | – | – | – | –
